Assay results: patent publication US11667602B2, “Compounds and their use” (AstraZeneca AB, priority 2020, dated 2023)

Target: T1, human RXFP1 (Homo sapiens, UniProt Q9HBX9)
T1 sequence (Q9HBX9 1-757): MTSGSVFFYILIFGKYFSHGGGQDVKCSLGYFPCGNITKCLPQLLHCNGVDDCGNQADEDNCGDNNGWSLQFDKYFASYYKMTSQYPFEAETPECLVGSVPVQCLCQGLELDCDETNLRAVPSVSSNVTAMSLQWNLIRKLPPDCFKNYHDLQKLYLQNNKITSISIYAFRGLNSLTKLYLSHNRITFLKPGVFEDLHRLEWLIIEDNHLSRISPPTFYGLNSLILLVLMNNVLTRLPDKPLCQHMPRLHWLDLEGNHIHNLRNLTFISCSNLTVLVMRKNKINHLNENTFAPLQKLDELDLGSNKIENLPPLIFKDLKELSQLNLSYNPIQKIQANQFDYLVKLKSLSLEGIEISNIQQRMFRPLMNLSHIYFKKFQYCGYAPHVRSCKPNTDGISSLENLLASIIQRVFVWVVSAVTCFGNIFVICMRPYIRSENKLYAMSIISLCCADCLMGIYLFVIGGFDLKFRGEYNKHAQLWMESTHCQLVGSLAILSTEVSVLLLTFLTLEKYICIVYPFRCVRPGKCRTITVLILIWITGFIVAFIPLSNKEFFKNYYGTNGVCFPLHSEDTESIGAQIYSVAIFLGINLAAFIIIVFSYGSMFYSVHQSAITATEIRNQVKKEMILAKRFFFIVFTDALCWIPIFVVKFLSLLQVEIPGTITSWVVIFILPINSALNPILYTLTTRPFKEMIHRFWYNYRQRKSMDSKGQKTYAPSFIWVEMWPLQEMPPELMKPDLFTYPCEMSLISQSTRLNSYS
Experiment: RXFP1 Hu cAMP (Test A)
Format: cell-based
Design: expressed in transfected cells; host or cells: Jump-In T-REx CHO-K1 cells (ThermoFisher), induced with 10 ng/ml doxycycline for 24 h
Conditions: RXFP1 Hu cAMP; for EC50: read-out: Test A EC50
How it was run: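 Cells: CHO-K1 stably carrying human RXFP1, expressed after 24 h 10 ng/ml doxycycline; 0.5 mM IBMX final, HTRF detection after 2 h at room temperature.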

Compound | Test A Sinf | EC50
COc1cc(F)c(OC2CCC(C(=O)O)CC2)cc1C(=O)N[C@H]1[C@@H](C(=O)Nc2cccc(S(=O)(=O)C(F)(F)F)c2)[C@@H]2C=C[C@H]1C2 (mixture of isomers) [Example 457] | 56% | 
COc1cc(C#N)c(OC2CCC(C)(C(=O)O)CC2)cc1C(=O)NC1C(C(=O)NCC2(C)CCC2)C2CCC1N2CCC(F)(F)F (single isomer, unassigned) [Example 537, (1R,4s)-4-(2-Cyano-4-methoxy-5-(((1S*,2S*,3R*,4R*)-3-(((1-methylcyclobutyl)methyl)carbamoyl)-7-(3,3,3-trifluoropropyl)-7-azabicyclo[2.2.1]heptan-2-yl)carbamoyl)phenoxy)-1-methylcyclohexane-1-carboxylic acid] | 77% | 6000 nM
COc1cc(F)c(O[C@H]2CC[C@@H](C(=O)O)CC2)cc1C(=O)N[C@@H]1[C@H](C(=O)Nc2ccc(F)c(C(F)(F)F)c2)[C@H]2C=C[C@@H]1C2 [Example 501, (1R,4s)-4-(2-Fluoro-5-(((1S,2S,3R,4R)-3-((4-fluoro-3-(trifluoromethyl)phenyl)carbamoyl)bicyclo[2.2.1]hept-5-en-2-yl)carbamoyl)-4-methoxyphenoxy)cyclohexane-1-carboxylic acid] | 82% | 
COc1cc(C#N)c(O[C@H]2CC[C@@](C)(C(=O)O)CC2)cc1C(=O)N[C@@H]1[C@H]2CC[C@H](C2)[C@@H]1C(=O)NCCC1CC1 [Example 133] | 100% | 450 nM
(1R,4s)-4-(2-Fluoro-5-(((1S*,2S*,5S*)-2-hydroxy-5-((3-((trifluoromethyl)sulfonyl)phenyl)carbamoyl)cyclopentyl)carbamoyl)-4-methoxyphenoxy)-1-methylcyclohexane-1-carboxylic acid [Example 529] | 96% | 
COc1cc(F)c(-c2ccc(C(=O)O)cc2)cc1C(=O)N[C@H]1[C@@H]2CC[C@@H](C2)[C@H]1C(=O)N[C@H]1CCCN(S(=O)(=O)C(F)(F)F)C1 (single isomer, unassigned) [Example 314, 2′-Fluoro-4′-methoxy-5′-(((1R*,2S*,3R*,4S*)-3-(((S)-1-((trifluoromethyl)sulfonyl)piperidin-3-yl)carbamoyl)bicyclo[2.2.1]heptan-2-yl)carbamoyl)-[1,1′-biphenyl]-4-carboxylic acid] | 74% | 7800 nM
COc1cc(F)c(-c2ccc(C(=O)O)s2)cc1C(=O)N[C@H]1[C@@H](C(=O)Nc2cccc(S(=O)(=O)C(F)(F)F)c2)[C@@H]2C=C[C@H]1C2 (racemic) [Example 285] | 75% | 300 nM
COc1cc(C#N)c(O[C@H]2CC[C@@](C)(C(=O)O)CC2)cc1C(=O)NC1CCC1C(=O)NCC1(C)CCC1 (single isomer, unassigned) [Example 572, (1R,4s)-4-(2-Cyano-4-methoxy-5-(((1S*,2R*)-2-(((1-methylcyclobutyl)methyl)carbamoyl)cyclobutyl)carbamoyl)phenoxy)-1-methylcyclohexane-1-carboxylic acid] |  | > 40000 nM
COc1ccc(Oc2ccc(C(=O)O)cc2)cc1C(=O)N[C@H]1[C@@H](C(=O)Nc2cccc(S(=O)(=O)C(F)(F)F)c2)[C@@H]2C=C[C@H]1C2 (racemic) [Example 427] | 86% | 680 nM
COc1cc(F)c(O[C@H]2CC[C@@](C)(C(=O)O)CC2)cc1C(=O)N[C@@H]1[C@H]2CC[C@H](C2)[C@@H]1C(=O)NCC(C)(C)O [Example 611] |  | > 40000 nM
COc1cc(F)c(O[C@H]2CC[C@@](C)(C(=O)O)CC2)cc1C(=O)N[C@@H]1[C@H]2CC[C@H](C2)[C@@H]1C(=O)NCC1(C(F)(F)F)CC1 [Example 614] | 96% | 
COc1cc(F)c(O[C@H]2CC[C@@H](S(N)(=O)=O)CC2)cc1C(=O)N[C@@H]1[C@@H]2CC[C@@H](C2)[C@@H]1C(=O)Nc1cccc(S(=O)(=O)C(F)(F)F)c1 [Example 463, (1S,2S,3R,4R)-3-(4-Fluoro-2-methoxy-5-(((1s,4S)-4-sulfamoylcyclohexyl)oxy)benzamido)-N-(3-((trifluoromethyl)sulfonyl)phenyl)bicyclo[2.2.1]heptane-2-carboxamide] | 111% | 340 nM
COc1cc(F)c(-c2ccc(C(=O)O)cc2F)cc1C(=O)N[C@H]1[C@@H](C(=O)Nc2cccc(S(=O)(=O)C(F)(F)F)c2)[C@@H]2C=C[C@H]1C2 (racemic) [Example 227] | 102% | 420 nM
COc1cc(F)c(O[C@H]2CC[C@@](CO)(C(=O)O)CC2)cc1C(=O)N[C@@H]1C[C@@H](OC)C[C@@H]1C(=O)NCC(C)(C)C (racemic) [Example 338] | 104% | 4100 nM

Other lines, results leading:

Test A Sinf | EC50 | Compound
89% | 120 nM | CCc1cc(OC)c(C(=O)N[C@@H]2[C@H]3CC[C@H](C3)[C@@H]2C(=O)NC23CC(F)(C2)C3)cc1O[C@H]1CC[C@@](C)(C(=O)O)CC1 [Example 383]
112% | 13 nM | COc1cc(F)c(O[C@H]2CC[C@@](OC)(C(=O)O)CC2)cc1C(=O)N[C@@H]1[C@@H]2CC[C@@H](C2)[C@@H]1C(=O)Nc1cccc(S(=O)(=O)C(F)(F)F)c1 [Example 508, (1R,4r)-4-(2-Fluoro-4-methoxy-5-(((1R,2R,3S,4S)-3-((3-((trifluoromethyl)sulfonyl)phenyl)carbamoyl)bicyclo[2.2.1]heptan-2-yl)carbamoyl)phenoxy)-1-methoxycyclohexane-1-carboxylic acid]
95% | 160 nM | COc1cc(C#N)c(O[C@H]2CC[C@@](C)(C(=O)O)CC2)cc1C(=O)N[C@@H]1[C@H]2CC[C@H](C2)[C@@H]1C(=O)NC1CCCC1 [Example 139]
95% | 26 nM | COc1cc(F)c(-c2ccc([C@@H]3C[C@H]3C(=O)O)nc2)cc1C(=O)N[C@@H]1[C@H]2CC[C@H](C2)[C@@H]1C(=O)Nc1cccc(S(=O)(=O)C(F)(F)F)c1 (single isomer, unassigned) [Example 262, (1R*,2R*)-2-(5-(2-Fluoro-4-methoxy-5-(((1S,2R,3S,4R)-3-((3-((trifluoromethyl)sulfonyl)phenyl)carbamoyl)bicyclo[2.2.1]heptan-2-yl)carbamoyl)phenyl)pyridin-2-yl)cyclopropane-1-carboxylic acid]
90% | 260 nM | COc1cc(F)c(O[C@H]2CC[C@@](C)(C(=O)O)CC2)cc1C(=O)N[C@H]1[C@@H](C(=O)NCC2(C)CCC2)[C@H]2CC[C@@H]1O2 (racemic) [Example 331, (1R,4s)-4-(2-Fluoro-4-methoxy-5-(((1SR,2SR,3RS,4RS)-3-(((1-methylcyclobutyl)methyl)carbamoyl)-7-oxabicyclo[2.2.1]heptan-2-yl)carbamoyl)phenoxy)-1-methylcyclohexane-1-carboxylic acid]
107% | 240 nM | COc1cc(C#N)c(O[C@H]2CC[C@@](C)(C(=O)O)CC2)cc1C(=O)N[C@@H]1[C@H]2CC[C@H](C2)[C@@H]1C(=O)NCC(C)(C)OC [Example 129]
104% | 180 nM | COc1cc(C#N)c(O[C@H]2CC[C@@](C)(C(=O)O)CC2)cc1C(=O)N[C@@H]1[C@H]2CC[C@H](C2)[C@@H]1C(=O)NC1CC(F)(F)C1 [Example 623]
118% | 110 nM | COc1cc(C#N)c(O[C@H]2CC[C@@](C)(C(=O)O)CC2)cc1C(=O)Nc1cc(Cl)ccc1C(=O)NCC1(c2ccccc2)CC1 [Example 158]
104% | 29 nM | COc1cc(F)c(OC2CCC(O)(C(=O)O)CC2)cc1C(=O)NC1C2CCC(C2)C1C(=O)Nc1cccc(S(=O)(=O)C(F)(F)F)c1 [Example 582, (1R,4r)-4-(2-Fluoro-4-methoxy-5-(((1R*,2R*,3S*,4S*)-3-((3-((trifluoromethyl)sulfonyl)phenyl)carbamoyl)bicyclo[2.2.1]heptan-2-yl)carbamoyl)phenoxy)-1-hydroxycyclohexane-1-carboxylic acid]
101% | 160 nM | COc1cc(C#N)c(O[C@H]2CC[C@@](C)(C(=O)O)CC2)cc1C(=O)N[C@@H]1[C@H]2CC[C@H](C2)[C@@H]1C(=O)NC[C@H]1C[C@@H](C)C1 [Example 124]
95% | 91 nM | COc1cc(F)c(O[C@H]2CC[C@@](C)(C(=O)O)CC2)cc1C(=O)N[C@H]1[C@@H](C(=O)NCC2(C)CCC2)[C@H]2C=C[C@@H]1CC2 (racemic) [Example 471, (1R,4s)-4-(2-Fluoro-4-methoxy-5-(((1RS,2SR,3RS,4SR)-3-(((1-methylcyclobutyl)methyl)carbamoyl)bicyclo[2.2.2]oct-5-en-2-yl)carbamoyl)phenoxy)-1-methylcyclohexane-1-carboxylic acid]
